Patent US20140005164A1, “WNT PATHWAY ANTAGONISTS” (Siena Biotech S.p.A., priority 2011, published 2014)

System: Wnt/β-catenin pathway
Test: Wnt reporter assay (TCF-Luciferase, Firefly) in DBTRG-05MG cells
Assay type: cell-based
Conditions: Homo sapiens, 24 h, read-out: IC50 value in the reporter assay
Description: Three copies of a 4×TCF responsive elements were cloned into the pcDNA3.1/Zeo(+) vector (Invitrogen) after deletion of the constitutive CMV promoter and the insertion of the Firefly Luciferase from Promega (phFL-TK) to measure the activity of the Wnt/β-catenin pathway. The resulting plasmid was sequenced for quality control.
Cells were grown in 20 μg/ml Zeocin and 20 μg/ml Zeocin plus 30 μg/ml Hygromicin respectively. The cells were plated at a density of 6500 cells/well in poly-D-lysine pre-treated 96 well-plates.
36 hours after plating cells were incubated with 8-points dilutions compound (0.6% DMSO (v/v)). Each compound was tested in triplicate in single plate. Luciferase detection was done with Dual-Luciferase Reporter Assay System (Promega). 24 hours after compound addition, media was removed and 30 μl of 1× lysis buffer was added to each well for 30 minutes. To each well 45 μl of Dual-Glo Luciferase reagent (Promega) were added and after 1 second delay Luciferase was detected for 1 second using Mithras LB940 instrument. After Firefly luciferase quantification 45 μl of Dual Stop & Glo reagent (Promega) were added to each well and […] Renilla was detected using the same parameters described before.
Data were expressed as % of control for Firefly and Renilla luciferase independently; values were calculated using XLFit version 4.2, with a four parameters sigmoid function (XLFit model 205).

| SMILES | IC50 |
| --- | --- |
| COc1ccc2c(c1)n(C[C@H]1CC[C@H](C(=O)N3CCC4(CC3)OCCO4)CC1)c(=O)n2C [Example 86] | 35 to 23000 nM |

Same assay, conditions: Homo sapiens, TCF-Luciferase (Firefly) read out, 24 hours after compound addition, range given with mixed units nM and μM, read-out: IC50 value in the reporter assay

| SMILES | IC50 |
| --- | --- |
| COc1ccc2c(c1)n(C[C@H]1CC[C@H](C(=O)Nc3ccnc(N4CCOCC4)c3)CC1)c(=O)n2C [Example 50] | 35 to 23000 nM |
| COc1ccc2c(c1)n(C[C@H]1CC[C@H](C(=O)N3CCN(c4nccc(OC)n4)CC3)CC1)c(=O)n2C [Example 51] | 35 to 23000 nM |
| COc1cc(NC(=O)[C@H]2CC[C@H](Cn3c(=O)n(C)c4ccc(Cl)cc43)CC2)ccn1 [Example 52] | 35 to 23000 nM |
| Cn1c(=O)n(C[C@H]2CC[C@H](C(=O)N3CCN(c4nccs4)CC3)CC2)c2cc(Cl)ccc21 [Example 53] | 35 to 23000 nM |
| Cn1c(=O)n(C[C@H]2CC[C@H](C(=O)N3CCN(c4nccs4)CC3)CC2)c2ccc(Cl)cc21 [Example 54] | 35 to 23000 nM |
| Cn1c(=O)n(C[C@H]2CC[C@H](C(=O)N3CCN(c4ncccn4)CC3)CC2)c2ccc(Cl)cc21 [Example 55] | 35 to 23000 nM |
| Cn1c(=O)n(C[C@H]2CC[C@H](C(=O)N3CCN(c4nccs4)CC3)CC2)c2cccc(Cl)c21 [Example 56] | 35 to 23000 nM |
| COCCOc1cc(NC(=O)[C@H]2CC[C@H](Cn3c(=O)n(C)c4cc(Cl)ccc43)CC2)ccn1 [Example 57] | 35 to 23000 nM |
| COc1cc(NC(=O)[C@H]2CC[C@H](Cn3c(=O)n(C)c4c(Cl)cccc43)CC2)ccn1 [Example 58] | 35 to 23000 nM |
| COc1ccc2c(c1)n(C[C@H]1CC[C@H](C(=O)N3[C@H](C)CCC[C@@H]3C)CC1)c(=O)n2C [Example 59] | 35 to 23000 nM |
| COc1ccc2c(c1)n(C[C@H]1CC[C@H](C(=O)N3CCN(c4cnccn4)CC3)CC1)c(=O)n2C [Example 60] | 35 to 23000 nM |
| COc1ccc2c(c1)n(C[C@H]1CC[C@H](C(=O)N3CCSCC3)CC1)c(=O)n2C [Example 62] | 35 to 23000 nM |
| COc1ccc2c(c1)n(C[C@H]1CC[C@H](C(=O)N3CC4CCC(C3)O4)CC1)c(=O)n2C [Example 63] | 35 to 23000 nM |
| COc1ccc2c(c1)n(C[C@H]1CC[C@H](C(=O)Nc3ccc(N4C[C@@H](C)O[C@@H](C)C4)nc3)CC1)c(=O)n2C [Example 64] | 35 to 23000 nM |
| COc1ccc2c(c1)n(C[C@H]1CC[C@H](C(=O)N3CCN(c4cccc(OC)n4)CC3)CC1)c(=O)n2C [Example 65] | 35 to 23000 nM |
| COc1ccc2c(c1)n(C[C@H]1CC[C@H](C(=O)Nc3ccc(-c4nnco4)cc3)CC1)c(=O)n2C [Example 66] | 35 to 23000 nM |
| COc1ccc2c(c1)n(C[C@H]1CC[C@H](C(=O)Nc3cccc4oc(C5CC5)nc34)CC1)c(=O)n2C [Example 67] | 35 to 23000 nM |
| Cn1c(=O)n(C[C@H]2CC[C@H](C(=O)Nc3ccncc3)CC2)c2cc(C3CC3)ccc21 [Example 69] | 35 to 23000 nM |
| Cc1cnccc1NC(=O)[C@H]1CC[C@H](Cn2c(=O)n(C)c3ccc(C4CC4)cc32)CC1 [Example 70] | 35 to 23000 nM |
| Cn1c(=O)n(C[C@H]2CC[C@H](C(=O)N3CCN(c4ccncc4)CC3)CC2)c2cc(C(F)(F)F)ccc21 [Example 73] | 35 to 23000 nM |
| COc1ccc2c(c1)n(C[C@H]1CC[C@H](C(=O)N3CCN(C(=O)[C@@H]4CCC(=O)O4)CC3)CC1)c(=O)n2C [Example 74] | 35 to 23000 nM |
| COc1ccc2c(c1)n(C[C@H]1CC[C@H](C(=O)N3CCN(C(=O)[C@H]4CCC(=O)O4)CC3)CC1)c(=O)n2C [Example 75] | 35 to 23000 nM |

| SMILES | IC50 |
| --- | --- |
| COc1ccc2c(c1)n(C[C@H]1CC[C@H](C(=O)N3CCN(c4ccncc4)CC3)CC1)c(=O)n2C [Example 76] | 35 to 23000 nM |
| COCCNc1ccc2c(c1)n(C[C@H]1CC[C@H](C(=O)Nc3ccncc3)CC1)c(=O)n2C [Example 78] | 35 to 23000 nM |
| COc1ccc2c(c1)n(C[C@H]1CC[C@H](C(=O)N3CCN(c4ccnc(F)c4)CC3)CC1)c(=O)n2C [Example 79] | 35 to 23000 nM |
| COc1ccc2c(c1)n(C[C@H]1CC[C@H](C(=O)N3CCN(c4ncc(Br)cn4)CC3)CC1)c(=O)n2C [Example 80] | 35 to 23000 nM |
| COc1ccc2c(c1)n(C[C@H]1CC[C@H](C(=O)N3CCC(C(C)=O)CC3)CC1)c(=O)n2C [Example 81] | 35 to 23000 nM |
| COc1ccc2c(c1)n(C[C@H]1CC[C@H](C(=O)N3CCC(c4ncccn4)CC3)CC1)c(=O)n2C [Example 82] | 35 to 23000 nM |
| COc1ccc2c(c1)n(C[C@H]1CC[C@H](C(=O)N3CCC(c4cnccn4)CC3)CC1)c(=O)n2C [Example 83] | 35 to 23000 nM |
| COc1ccc2c(c1)n(C[C@H]1CC[C@H](C(=O)N3CCC(c4noc(C)n4)CC3)CC1)c(=O)n2C [Example 84] | 35 to 23000 nM |
| CONC(=O)C1CCN(C(=O)[C@H]2CC[C@H](Cn3c(=O)n(C)c4ccc(OC)cc43)CC2)CC1 [Example 85] | 35 to 23000 nM |
| COc1ccc2c(c1)n(C[C@H]1CC[C@H](C(=O)N3CCN(c4cccc(C(F)(F)F)n4)CC3)CC1)c(=O)n2C [Example 87] | 35 to 23000 nM |
| COc1ccc2c(c1)n(C[C@H]1CC[C@H](C(=O)N3CCN(c4ccc(C#N)nc4)CC3)CC1)c(=O)n2C [Example 88] | 35 to 23000 nM |
| COc1ccc2c(c1)n(C[C@H]1CC[C@H](C(=O)N3CCN(c4ccc(F)nc4)CC3)CC1)c(=O)n2C [Example 89] | 35 to 23000 nM |
| COc1ccc2c(c1)n(C[C@H]1CC[C@H](C(=O)N3CCN(c4ccc(C(F)(F)F)nc4)CC3)CC1)c(=O)n2C [Example 90] | 35 to 23000 nM |
| COc1ccc2c(c1)n(C[C@H]1CC[C@H](C(=O)N3CCN(c4ccnc(OC)c4)CC3)CC1)c(=O)n2C [Example 91] | 35 to 23000 nM |
| COc1ccc2c(c1)n(C[C@H]1CC[C@H](C(=O)N3CCN(c4ccc(C)nc4)CC3)CC1)c(=O)n2C [Example 93] | 35 to 23000 nM |
| COc1ccc2c(c1)n(C[C@H]1CC[C@H](C(=O)N3CCN(c4cc(C)nc(C)c4)CC3)CC1)c(=O)n2C [Example 94] | 35 to 23000 nM |
| COc1ccc2c(c1)n(C[C@H]1CC[C@H](C(=O)N3CC4(COC4)C3)CC1)c(=O)n2C [Example 95] | 35 to 23000 nM |
| COc1ccc2c(c1)n(C[C@H]1CC[C@H](c3nnc(-c4cccnc4)o3)CC1)c(=O)n2C [Example 96] | 35 to 23000 nM |
| COc1ccc2c(c1)n(C[C@H]1CC[C@H](c3nnc(-c4ccncc4)o3)CC1)c(=O)n2C [Example 97] | 35 to 23000 nM |
| COc1ccc2c(c1)n(C[C@H]1CC[C@H](c3nnc(-c4ccc(C)nc4)o3)CC1)c(=O)n2C [Example 98] | 35 to 23000 nM |
| COc1ccc2c(c1)n(C[C@H]1CC[C@H](c3nnc(-c4csc(C)n4)o3)CC1)c(=O)n2C [Example 99] | 35 to 23000 nM |
| COc1ccc2c(c1)n(C[C@H]1CC[C@H](C(=O)Nc3ccnnc3)CC1)c(=O)n2C [Example 100] | 35 to 23000 nM |

| SMILES | IC50 |
| --- | --- |
| CC(=O)N1CCN(C(=O)[C@H]2CC[C@H](Cn3c(=O)n(C)c4ccc(CCCC#N)nc43)CC2)CC1 [Example 101] | 35 to 23000 nM |
| COCC#Cc1ccc2c(n1)n(C[C@H]1CC[C@H](C(=O)N3CCN(C(C)=O)CC3)CC1)c(=O)n2C [Example 102] | 35 to 23000 nM |
| COc1ccc2c(c1)n(C[C@H]1CC[C@H](C(=O)Nc3cncnc3)CC1)c(=O)n2C [Example 103] | 35 to 23000 nM |
| COc1ccc2c(c1)n(C[C@H]1CC[C@H](C(=O)Nc3ccncn3)CC1)c(=O)n2C [Example 104] | 35 to 23000 nM |
| COc1ccc2c(c1)n(C[C@H]1CC[C@H](C(=O)N3CCNC(=O)C3)CC1)c(=O)n2C [Example 105] | 35 to 23000 nM |
| CCOCc1nnc([C@H]2CC[C@H](Cn3c(=O)n(C)c4ccc(OC)cc43)CC2)o1 [Example 107] | 35 to 23000 nM |
| COCCN(C)c1ccc2c(n1)n(C[C@H]1CC[C@H](C(=O)Nc3ccncc3)CC1)c(=O)n2C [Example 108] | 35 to 23000 nM |
| COc1ccc2c(c1)n(C[C@H]1CC[C@H](c3nnc(-c4ccncc4F)o3)CC1)c(=O)n2C [Example 109] | 35 to 23000 nM |
| COc1ccc2c(c1)n(C[C@H]1CC[C@H](c3nnc(-c4ccn(C)n4)o3)CC1)c(=O)n2C [Example 110] | 35 to 23000 nM |
| Cn1c(=O)n(C[C@H]2CC[C@H](C(=O)Nc3ccncc3)CC2)c2cc(Br)ccc21 [Example 111] | 35 to 23000 nM |
| COc1ccc2c(c1)n(C[C@H]1CC[C@H](c3nnc(-c4ccc(OC)c(F)c4)o3)CC1)c(=O)n2C [Example 112] | 35 to 23000 nM |
| COC/C=C/c1ccc2c(c1)n(C[C@H]1CC[C@H](C(=O)Nc3ccncc3)CC1)c(=O)n2C [Example 113] | 35 to 23000 nM |
| COC/C=C/c1ccc2c(n1)n(C[C@H]1CC[C@H](C(=O)Nc3ccncc3)CC1)c(=O)n2C [Example 114] | 35 to 23000 nM |
| Cn1c(=O)n(C[C@H]2CC[C@H](C(=O)Nc3ccncc3)CC2)c2nc(Br)ccc21 [Example 116] | 35 to 23000 nM |
| COc1ccc2c(c1)n(C[C@H]1CC[C@H](c3nnc(-c4ccncn4)o3)CC1)c(=O)n2C [Example 117] | 35 to 23000 nM |
| COc1ccc2c(c1)n(C[C@H]1CC[C@H](c3nnc(-c4cccc(OC(F)F)c4)o3)CC1)c(=O)n2C [Example 118] | 35 to 23000 nM |
| CN(C)CC#Cc1ccc2c(n1)n(C[C@H]1CC[C@H](C(=O)Nc3ccncc3)CC1)c(=O)n2C [Example 119] | 35 to 23000 nM |
| CN(C)c1ccc2c(n1)n(C[C@H]1CC[C@H](C(=O)Nc3ccncc3)CC1)c(=O)n2C [Example 120] | 35 to 23000 nM |
| COCCOc1ccc2c(c1)n(C[C@H]1CC[C@H](C(=O)Nc3ccncn3)CC1)c(=O)n2C [Example 122] | 35 to 23000 nM |
| Cn1c(=O)n(C[C@H]2CC[C@H](C(=O)N3CCN(c4ccncc4)CC3)CC2)c2cc(C#N)ccc21 [Example 123] | 35 to 23000 nM |
